Measurements taken from ChEMBL document CHEMBL1138545, “Synthesis and antimicrobial activities of some new triazolothiadiazoles bearing 4-methylthiobenzyl moiety” (2009).
Values after ≈ are worked out from the molar mass of the structure shown.

Experiments:
Escherichia coli [1] = experiment: Antibacterial activity against Escherichia coli ATTC 25922 after 24 hrs by the disk diffusion method; type: functional; conditions: for MIC: Escherichia coli, ATTC 25922, 24 h
Staphylococcus aureus [2] = experiment: Antibacterial activity against Staphylococcus aureus ATTC […] after 24 hrs by the disk diffusion method; type: functional; conditions: for MIC: Staphylococcus aureus, 24 h
Pseudomonas aeruginosa [3] = experiment: Antibacterial activity against Pseudomonas aeruginosa ATTC 27853 after 24 hrs by the disk diffusion method; type: functional; conditions: for MIC: Pseudomonas aeruginosa, ATTC 27853, 24 h
Klebsiella pneumoniae [4] = experiment: Antibacterial activity against Klebsiella pneumoniae after 24 hrs by the disk diffusion method; type: functional; conditions: for MIC: Klebsiella pneumoniae, 24 h
Candida albicans = experiment: Antifungal activity against Candida albicans NICM 300 after 3 to days by serial plate dilution method; type: functional; conditions: for MIC: Candida albicans, NICM 300
Aspergillus fumigatus = experiment: Antifungal activity against Aspergillus fumigatus NICM 902 after 3 to days by serial plate dilution method; type: functional; conditions: for MIC: Aspergillus fumigatus, NICM 902
Aspergillus flavus = experiment: Antifungal activity against Aspergillus flavus NICM 524 after 3 to days by serial plate dilution method; type: functional; conditions: for MIC: Aspergillus flavus, NICM 524
[5] = test system: Trichophyton mentagrophytes; experiment: Antifungal activity against Trichophyton mentagrophytes after 3 to days by serial plate dilution method; type: functional; conditions: for MIC: Trichophyton mentagrophytes
Klebsiella pneumoniae [6] = experiment: Antibacterial activity against Klebsiella pneumoniae at 10 ug/mL after 24 hrs by the disk diffusion method; type: functional
Escherichia coli [7] = experiment: microbe, parasite or virus in culture; conditions: ATTC 25922, 24 h
Description: Antibacterial activity against Escherichia coli ATTC 25922 at 10 ug/mL after 24 hrs by the disk diffusion method

Staphylococcus aureus [8] = experiment: microbe, parasite or virus in culture; conditions: ATTC 25922, 24 h
Description: Antibacterial activity against Staphylococcus aureus ATTC 25922 at 10 ug/mL after 24 hrs by the disk diffusion method

Pseudomonas aeruginosa [9] = experiment: microbe, parasite or virus in culture; conditions: ATTC 27853, 24 h, read-out: IZ
Description: Antibacterial activity against Pseudomonas aeruginosa ATTC 27853 at 10 ug/mL after 24 hrs by the disk diffusion method

| MIC (Escherichia coli [1]) [µg/mL] | MIC (Staphylococcus aureus [2]) [µg/mL] | MIC (Pseudomonas aeruginosa [3]) [µg/mL] | MIC (Klebsiella pneumoniae [4]) [µg/mL] | MIC (Candida albicans) [µg/mL] | MIC (Aspergillus fumigatus) [µg/mL] | MIC (Aspergillus flavus) [µg/mL] | MIC [5] [µg/mL] | SMILES | inhibition zone (IZ) (Escherichia coli [1]) [mm] | inhibition zone (IZ) (Staphylococcus aureus [2]) [mm] | inhibition zone (IZ) (Pseudomonas aeruginosa [3]) [mm] | inhibition zone (IZ) (Klebsiella pneumoniae [4]) [mm] | diameter of the inhibition zone (DIZ) (Candida albicans) [mm] | diameter of the inhibition zone (DIZ) (Aspergillus fumigatus) [mm] | diameter of the inhibition zone (DIZ) (Aspergillus flavus) [mm] | diameter of the inhibition zone (DIZ) [5] [mm] | further results |
| --- | --- | --- | --- | --- | --- | --- | --- | --- | --- | --- | --- | --- | --- | --- | --- | --- | --- |
| 6 (≈ 14.3 µM) | 12.5 (≈ 29.9 µM) | 6 (≈ 14.3 µM) | 6 (≈ 14.3 µM) | 25 (≈ 59.7 µM) | 12.5 (≈ 29.9 µM) | 25 (≈ 59.7 µM) | 12.5 (≈ 29.9 µM) | CSc1ccc(Cc2nnc3sc(-c4ccc(-c5ccc(C)cc5)o4)nn23)cc1 | 18 | 18 | 18 | 23 | 14 | 21 | 11 | 17 | – |
| 12.5 (≈ 28.8 µM) | 25 (≈ 57.5 µM) | 12.5 (≈ 28.8 µM) | 12.5 (≈ 28.8 µM) | 25 (≈ 57.5 µM) | 6 (≈ 13.8 µM) | 12.5 (≈ 28.8 µM) | 6 (≈ 13.8 µM) | COc1ccc(-c2ccc(-c3nn4c(Cc5ccc(SC)cc5)nnc4s3)o2)cc1 | 16 | 14 | 17 | 18 | 10 | 22 | 18 | 18 | – |
| 25 (≈ 52.1 µM) | 25 (≈ 52.1 µM) | 25 (≈ 52.1 µM) | 6 (≈ 12.5 µM) | 25 (≈ 52.1 µM) | 12.5 (≈ 26.1 µM) | 25 (≈ 52.1 µM) | 25 (≈ 52.1 µM) | COc1ccc(-c2ccc(-c3nn4c(Cc5ccc(SC)cc5)nnc4s3)o2)c([N+](=O)[O-])c1 | 13 | 12 | 12 | 21 | 17 | 19 | 12 | 15 | – |
| 12.5 (≈ 26.4 µM) | 25 (≈ 52.8 µM) | 6 (≈ 12.7 µM) | 12.5 (≈ 26.4 µM) | 6 (≈ 12.7 µM) | 25 (≈ 52.8 µM) | 6 (≈ 12.7 µM) | 12.5 (≈ 26.4 µM) | CSc1ccc(Cc2nnc3sc(-c4ccc(-c5cc(Cl)ccc5Cl)o4)nn23)cc1 | 16 | 16 | 18 | 20 | 20 | 13 | 18 | 17 | – |
| – | – | – | – | – | – | – | – | O=C(O)c1cn(C2CC2)c2cc(N3CCNCC3)c(F)cc2c1=O [CIPROFLOXACIN] | – | – | – | – | – | – | – | – | MIC (Klebsiella pneumoniae [6]): 6 µg/mL (≈ 18.1 µM); zone of inhibition at 10 µg/mL (Klebsiella pneumoniae [6]; read-out: IZ): 25 mm; MIC (Escherichia coli [7]): 6 µg/mL (≈ 18.1 µM); MIC (Staphylococcus aureus [8]): 12.5 µg/mL (≈ 37.7 µM); zone of inhibition at 10 µg/mL (Staphylococcus aureus [8]; read-out: IZ): 19 mm; zone of inhibition at 10 µg/mL (Pseudomonas aeruginosa [9]): 18 mm |
